Reference: patent US20080287490A1, “Bis-pyridino containing compounds for the use in the treatment of CNS pathologies” (UNIVERSITY OF KENTUCKY RESEARCH FOUNDATION, priority 2005, published 2008)
Read-outs that look alike come from different tables or passages of the source.

Key:
[1] = target: T1, Rat Striatal Nicotinic Acetylcholine Receptors ([^3H]nicotine binding sites) (Rattus norvegicus, UniProt P09483+P12390); test: biochemical; settings: read-out: Ki, specific binding of [^3H]-nicotine
T1 construct: Striata from two rats were dissected, pooled, and homogenized; from tissue; host or cells: rat striatum membranes
Method: Striata from two rats were dissected, pooled, and homogenized with a Tekmar polytron in 10 volumes of ice-cold modified Krebs-HEPES buffer (20 mM HEPES, 118 mM NaCl, 4.8 mM KCl, 2.5 mM CaCl2, 1.2 mM MgSO4, adjusted to pH 7.5). The homogenates were incubated at 37° C. for five minutes and centrifuged at 15,000 g for 20 minutes. The pellet was resuspended in ten volumes of ice-cold MilliQ water, incubated for five minutes at 37° C., and centrifuged at 15,000 g for 20 minutes The second pellet was then resuspended in ten volumes of fresh ice-cold 10% Krebs-HEPES buffer, incubated at 37° C., and centrifuged at 15,000 g for 20 minutes. The latter sequence of resuspension, incubation, and centrifugation was repeated. The pellet was frozen under fresh 10% Krebs-HEPES buffer and stored at −40° C. until assay. Upon assay, the pellet was resuspended in the Krebs-HEPES buffer, incubated at 37° C. for five minutes, and centrifuged at 15,000 g for 20 minutes. The final pellet was resuspended in 3.6 ml ice-cold MilliQ water which provided for approximately 200 μg protein per 100 μl aliquot. Competition assays were performed in duplicate in a final volume of 200 μl Krebs-HEPES buffer containing […] Tris buffer (pH 7.5 at 4° C.). […] After a 90 minute incubation at 4° C., reactions were terminated by dilution of the samples with 3 ml of ice-cold Krebs-HEPES buffer followed immediately by filtration through Whatman GF/B glass fiber filters (presoaked in 0.5% polyethyleneimine) using a Brandel Cell Harvester. Filters were rinsed three times with 3 ml of ice-cold Krebs-HEPES buffer, transferred to scintillation vials, and 5 ml scintillation cocktail (Research Products International Corp., Mt. Prospect, Ill.) added. […] Binding parameters were determined using the weighted, least squares non-linear regression.

[^3H]DA Uptake = [^3H]DA uptake inhibition (Table 11); format: biochemical
α7* nAChRs = α7* nAChRs (Rattus norvegicus, UniProt Q05941); settings: read-out: [^3H]MLA Binding Ki
Method: (§1) Whole brain, excluding cortex and cerebellum, was homogenized in 20 ml of ice-cold buffer, containing (in mM): 2 HEPES, 11.8 NaCl, 0.48 KCl, 0.25 CaCl2 and 0.12 MgSO4, pH 7.5. Homogenate was centrifuged (25,000 g, 15 minutes, 4° C.). Pellets were resuspended in 20 ml of buffer and incubated at 37° C., for ten minutes, cooled to 4° C. and centrifuged (25,000 g, 15 minutes, 4° C.). Pellets were resuspended and centrifuged using the same conditions. Final pellets were stored in assay buffer, containing (in mM): 20 HEPES, 118 NaCl, 4.8 KCl, 2.5 CaCl2, and 1.2 MgSO4) pH 7.5 at −70° C. Upon use, final pellets were resuspended in ˜20 ml assay buffer. […] Control was in the absence of analog. […] Incubations proceeded for 60 minutes at room temperature using 96-well plates and were terminated by harvesting on Unifilter-96 GF/B filter plates presoaked in 0.5% polyethylenimine, using a Packard FilterMate harvester.
(§2) After washing five times with 350 μl ice-cold assay buffer, filter plates were dried (60 minutes, 49° C.), bottom-sealed, and filled with Packard's MicroScint 20 cocktail (40 μl/well). After 60 minutes, filter plates were top-sealed, and radioactivity determined using a Packard TopCount. Protein concentrations were determined using bovine serum albumin as the standard.
(§3) Whole brain was homogenized in 20 ml of ice-cold buffer (in mM: 2 HEPES, 11.8 NaCl, 0.48 KCl, 0.25 CaCl2, and 0.12 MgSO4, pH 7.5). Homogenates were centrifuged (25,000 g, 15 minutes, 4° C.). Pellets were resuspended in 20 ml of buffer and incubated at 37° C., for 10 minutes, cooled to 4° C. and centrifuged (25,000 g, 15 minutes, 4° C.). Pellets were resuspended and centrifuged again using the same conditions. Final pellets were stored at −70° C. in assay buffer (in mM: 20 HEPES, 118 NaCl, 4.8 KCl, 2.5 CaCl2, and 1.2 MgSO4, pH 7.5). Upon use, final pellets were resuspended in ˜20 ml assay buffer. […] Control was in the absence of analog. […] Incubation proceeded for 60 minutes at room temperature using 96-well plates and was terminated by harvesting on Unifilter-96 GF/B filter plates, presoaked in 0.5% polyethylenimine, using a Packard FiterMate harvester. After washing 5× with 350 μl ice-cold assay buffer, filter plates were dried (60 minutes, 49° C.), bottom-sealed, and filled with Packard's MicroScint 20 cocktail (40 μl/well). After 60 minutes, filter plates were top-sealed, and radioactivity determined. Protein concentration was determined using BSA as the standard.

[2] = target: T2, α7-type neuronal nicotinic acetylcholine receptors (Rattus norvegicus, UniProt Q05941); test: biochemical; settings: rat brain membranes, 2.5 nM [^3H]-MLA; read-out: Ki, [^3H]MLA binding
T2 construct: Rat brain was dissected into the whole brain tissue without cortex, striatum and cerebellum; from tissue; host or cells: rat brain (without cortex, striatum, cerebellum) membranes

α4β2* nAChRs = α4β2* nAChRs (Rattus norvegicus, UniProt P09483+P12390); settings: read-out: [^3H]Nicotine Binding Ki
Method: as §1, §2, §3

[3] = tested on: nAChR subtypes mediating nicotine-evoked [^3H]-dopamine overflow
Method: [^3H]-Dopamine overflow from superfused striatal slices. […] Striatal coronal slices (500 μm, 4-6 mg) were obtained and incubated for 30 minutes in Krebs' buffer (in mM: 118 NaCl, 4.7 KCl, 1.2 MgCl2, 1 NaH2PO4, 1.3 CaCl2, 11.1 glucose, 25 NaHCO3, 0.11 L-ascorbic acid and 0.004 disodium EDTA, pH 7.4, saturated with 95% O2/5% CO2) in a metabolic shaker at 34° C. Slices were incubated with 0.1 μM (final concentration) of [^3H]-dopamine during the latter 30 minutes of the 60-minute incubation period. Each slice was transferred to a glass superfusion chamber maintained at 34° C. and superfused (1 ml/min) with Krebs' buffer containing nomifensine (10 μM) and pargyline (10 μM) to inhibit [^3H]-dopamine reuptake after release into the extracellular space, ensuring that [^3H]-overflow primarily represented [^3H]-dopamine. Sample collection (5-minute; 5 mL) began after 60 minutes of superfusion. […] At the end of the experiment, each slice was solubilized, and the [^3H]-content of the tissue determined. Release during each minute was normalized for total tissue [^3H]-content. Analog-induced intrinsic activity and inhibitory activity were determined using slices from the same rat (repeated-measures design).
The amount of [^3H] in each sample was calculated by dividing the total [^3H] collected in each sample by the total in the tissue at the time of sample collection (defined as fractional release). […] Data were analyzed by weighted, least squares regression analysis of the sigmoidal concentration-effect curves to obtain EC50 and IC50 values.
Striatal slices (500 μm, 4-6 mg) were incubated for 30 minutes in Krebs' buffer (in mM: 118 NaCl, 4.7 KCl, 1.2 MgCl2, 1 NaH2PO4, 1.3 CaCl2, 11.1 glucose, 25 NaHCO3, 0.11 L-ascorbic acid and 0.004 disodium EDTA, pH 7.4, saturated with 95% O2/5% CO2) in a metabolic shaker at 34° C. Slices were incubated with 0.1 μM (final concentration) [^3H]DA during the latter 30 minutes of the 60-minute incubation period. Each slice was transferred to a glass superfusion chamber maintained at 34° C. and superfused (1 ml/min) with Krebs' buffer containing nomifensine (10 μM) and pargyline (10 μM) to inhibit [^3H]DA reuptake and metabolism, respectively, after release into the extracellular space, ensuring that [^3H]overflow primarily represents [^3H]DA. Sample collection (5-minute; 5 ml) began after 60 minutes of superfusion. […] Thus, the ability of these analogs to elicit intrinsic activity (evoke [^3H]DA overflow) was determined. At the end of the experiment, each slice was solubilized and [^3H]content of the tissue determined. Release during each minute was normalized for total [^3H]content of the slice. Analog-induced intrinsic activity and inhibitory activity were determined using slices from the same rat (repeated-measures design).
Fractional release was calculated by dividing the total tritium collected in each sample by the total tritium in the tissue at the time of sample collection. […] Typically, data were analyzed by weighted, least squares regression analysis of sigmoidal concentration-effect curves to obtain EC50 and IC50 values.

[4] = tested on: nAChR mediating nicotine-evoked [^3H]DA release (α3β2* receptor subtype); format: cell-based, rat; settings: read-out: IC50, S-(−)-nicotine-evoked [^3H]DA release
Method: Slices were rinsed with 15 mL of fresh buffer and incubated for an additional 30 minutes in fresh buffer containing 0.1 μM [^3H]DA (6 slices/3 ml). Subsequently, slices were rinsed with 15 ml of fresh buffer and transferred to a glass superfusion chamber.
Radioactivity in the superfusate and tissue samples was determined by liquid scintillation spectroscopy. […] Basal [^3H]outflow was calculated from the average of the tritium collected in the two five minute samples just before addition of the bis-alkyl pyridino analog. […] [^3H]Overflow was calculated by subtracting the [^3H]outflow during an equivalent period of prestimulation from the values in samples collected during and after drug exposure. Inasmuch as the radiolabelled compounds were not separated and identified, the tritium collected in superfusate is referred to as either [^3H]outflow or [^3H]overflow, rather than as [^3H]DA.

[5] = target: T2, α7-type neuronal nicotinic acetylcholine receptors; format: binding; settings: for Ki: read-out: Ki, [^3H]MLA binding
Method: Rat brain was dissected into the whole brain tissue without cortex, striatum and cerebellum and was frozen in liquid nitrogen and stored at −70° C. until use.
The brain tissue was homogenized with a Tekmar Polytron (setting 40) in 20 volumes of ice-cold hypotonic buffer (2 mM HEPES, 14.4 mM NaCl, 0.15 mM KCl, 0.2 mM CaCl2 and 0.1 mM MgSO4, pH=7.5). The homogenate was incubated at 37° C. for ten minutes and centrifuged at 25,000×g for 15 minutes at […] The pellet was washed three times more by resuspension in the 20 volumes of the same buffer and centrifugation at the above parameters. The final pellet was stored at −20° C. under 4.6 ml of the incubation buffer and was suspended just before the incubation with radioligand.
[^3H]MLA (25.4 Ci/mmol) was purchased from Tocris Cookson Ltd., Bristol, U.K. Binding was performed in duplicate, in a final volume of 250 μl of the incubation medium, containing 20 mM HEPES, 144 mM NaCl, 1.5 mM KCl, 2 mM CaCl2, 1 mM MgSO4 and 0.05% BSA, pH=7.5. Reaction was initiated by the addition of 100 μl of membrane suspension to the samples containing a desired concentration of test compounds and […] [^3H] MLA (final concentration) and incubated for 2 hours at room temperature. […] The binding reaction was terminated by dilution of samples with 3 ml of ice-cold incubation buffer followed by immediate filtration through presoaked in 0.5% polyethylenimine glass fiber filters (S&S, grade #32) using a Brandel harvester system. Filters were rinsed three times with 3 ml of ice-cold buffer, transferred to scintillation-vials and 4 ml of scintillation cocktail was added. Protein was measured using the Bradford dye-binding procedure with bovine serum albumin as the standard.

[6] = rat striatal membranes, 3 nM [^3H]-nicotine
[7] = read-out: Nicotine-evoked [^3H]DA Overflow IC50, Table 11
[8] = rat striatal slices, nicotine 10 μM
[9] = read-out: Nicotine-evoked [^3H]DA Overflow IC50, Table 7, mean (standard error)
[10] = rat brain membranes, […] [^3H]-MLA
[11] = read-out: Nicotine-evoked [^3H]DA Overflow IC50, Table 10, mean (standard error)

T2 sequence (Q05941 23-502): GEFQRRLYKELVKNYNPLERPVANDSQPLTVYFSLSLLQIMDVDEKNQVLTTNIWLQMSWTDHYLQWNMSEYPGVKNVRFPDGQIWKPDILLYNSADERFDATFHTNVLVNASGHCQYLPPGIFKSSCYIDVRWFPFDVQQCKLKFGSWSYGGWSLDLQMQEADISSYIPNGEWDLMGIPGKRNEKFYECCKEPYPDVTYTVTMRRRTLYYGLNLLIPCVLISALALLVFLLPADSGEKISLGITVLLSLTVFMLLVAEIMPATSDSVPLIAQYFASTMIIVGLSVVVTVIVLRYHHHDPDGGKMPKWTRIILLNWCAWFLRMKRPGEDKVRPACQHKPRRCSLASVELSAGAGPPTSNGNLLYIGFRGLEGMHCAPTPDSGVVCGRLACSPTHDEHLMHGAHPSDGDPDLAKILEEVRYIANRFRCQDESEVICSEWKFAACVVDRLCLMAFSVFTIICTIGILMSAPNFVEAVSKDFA
α7* nAChRs, sequence (Q05941 23-502): as above
α4β2* nAChRs, sequence (P09483 31-630): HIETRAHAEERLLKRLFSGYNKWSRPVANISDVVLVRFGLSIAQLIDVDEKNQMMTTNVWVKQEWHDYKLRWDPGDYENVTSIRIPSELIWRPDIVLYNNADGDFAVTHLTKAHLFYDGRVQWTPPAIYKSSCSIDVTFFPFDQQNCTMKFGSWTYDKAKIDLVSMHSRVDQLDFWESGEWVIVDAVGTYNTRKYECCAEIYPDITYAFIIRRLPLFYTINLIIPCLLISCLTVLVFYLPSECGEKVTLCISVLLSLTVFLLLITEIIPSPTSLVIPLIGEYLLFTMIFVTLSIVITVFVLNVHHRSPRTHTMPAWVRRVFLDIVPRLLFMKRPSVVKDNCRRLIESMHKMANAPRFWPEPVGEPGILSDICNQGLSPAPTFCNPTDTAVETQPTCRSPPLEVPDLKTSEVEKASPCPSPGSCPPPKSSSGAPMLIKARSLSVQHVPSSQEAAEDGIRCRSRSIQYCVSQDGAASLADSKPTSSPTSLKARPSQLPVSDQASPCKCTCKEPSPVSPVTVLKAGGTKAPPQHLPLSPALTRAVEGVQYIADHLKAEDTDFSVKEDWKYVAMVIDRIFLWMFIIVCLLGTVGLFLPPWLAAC
α4β2* nAChRs, sequence (P12390 25-500): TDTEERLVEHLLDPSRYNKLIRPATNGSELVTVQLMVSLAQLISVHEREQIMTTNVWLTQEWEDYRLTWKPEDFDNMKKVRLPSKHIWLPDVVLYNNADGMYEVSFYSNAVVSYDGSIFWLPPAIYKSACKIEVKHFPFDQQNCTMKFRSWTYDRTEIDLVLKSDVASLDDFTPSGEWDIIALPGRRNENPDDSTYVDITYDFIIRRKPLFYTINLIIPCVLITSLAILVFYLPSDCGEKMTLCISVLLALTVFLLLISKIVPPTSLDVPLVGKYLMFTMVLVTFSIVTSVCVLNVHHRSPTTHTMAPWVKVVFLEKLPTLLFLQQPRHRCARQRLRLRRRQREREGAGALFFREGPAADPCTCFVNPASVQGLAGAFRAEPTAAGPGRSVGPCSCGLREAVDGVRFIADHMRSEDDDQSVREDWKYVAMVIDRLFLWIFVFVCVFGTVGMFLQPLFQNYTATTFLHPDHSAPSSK
T1 sequence (P09483 31-630): as the sequence (P09483 31-630) above
T1 sequence (P12390 25-500): as the sequence (P12390 25-500) above

Compound | Ki [1, 6] | Ki ([^3H]DA Uptake) | Ki (α7* nAChRs; Table 11) | Ki [2] | Ki (α4β2* nAChRs; Table 11) | IC50 [3, 7] | IC50 [4, 8] | also measured
c1ccc2c[n+](CCCCCCCCCCCC[n+]3ccc4ccccc4c3)ccc2c1 [bIQDDB, N,N′-Dodecane-1,12-diyl-bis-isoquinolinium Dibromide] | > 100000 nM | 270 ± 70 nM | 2210 ± 250 nM | 12300 nM | 6100 ± 730 nM | 7 ± 3 nM |  | 
CN1CCC[C@H]1c1ccc[n+](CCCCCCCCCCCC[n+]2cccc([C@@H]3CCCN3C)c2)c1 [bNDDB, N,N′-Dodecane-1,12-diyl-bis-nicotinium Dibromide] | 1430 nM | 43200 ± 14900 nM |  |  | 1950 ± 190 nM | 40 ± 20 nM | 4370 nM | Ki (α4β2* nAChRs; Table 7, mean (standard error)): 1950 nM; IC50 [3, 9]: 170 nM
[Br-].[Br-].c1cc[n+](CCCCCCCCCCCC[n+]2ccccc2)cc1 [bPDDB, N,N′-Dodecane-1,12-diyl-bis-pyridinium Dibromide] | 9140 nM | > 100000 nM | 33000 ± 4600 nM | 35600 nM | 9150 ± 170 nM | 1000 ± 380 nM | 1000 nM | binding affinity in the [^3H]MLA assay [5]: moderate binding affinity; Ki (α7* nAChRs; Table 7, mean (standard error)): 33000 nM; Ki (α4β2* nAChRs; Table 7, mean (standard error)): 9150 nM; IC50 [3, 9]: 1000 nM
c1ccc2c(c1)ccc[n+]2CCCCCCCCCCCC[n+]1cccc2ccccc21 [bQDDB, N,N′-Dodecane-1,12-diyl-bis-quinolinium Dibromide] |  | 3860 ± 220 nM | 1610 ± 210 nM | 1570 nM |  | 21 ± 10 nM | 20 nM | 
N,N′-Dodecane-1,12-diyl-bis-picolinium Dibromide [bPiDDB] | 33000 nM | > 100000 nM | > 100000 nM |  | 48600 ± 17200 nM | 5 ± 3 nM | 5 nM | Ki [5, 10]: > 100000 nM; Ki (α4β2* nAChRs; Table 10, mean (standard error)): 49000 nM; affinity for nAChR subtype mediating nicotine-evoked [^3H]DA overflow compared to α4β2* and α7* nAChRs [3]: 4-5 orders of magnitude; maximal inhibition (Imax) of nicotine-evoked [^3H]DA overflow [3]: 60%; potency relative to DHβE in inhibiting nicotine-evoked [^3H]DA overflow [3]: approximately 320 fold; IC50 ([3]; read-out: IC50, inhibition of nicotine-evoked [^3H]dopamine release/overflow): 5 nM; IC50 [3, 11]: 5 nM
N,N′-Hexane-1,6-diyl-bis-picolinium; Diiodide [bPiHxI] |  |  |  |  |  |  |  | Ki [1]: > 100000 nM; Ki [5]: > 100000 nM; IC50 [4]: 1660 nM; IC50 ([3]; read-out: Nicotine-evoked [^3H]DA Overflow IC50): 1660 nM
N,N′-Nonane-1,9-diyl-bis-picolinium Dibromide [bPiNB] |  |  |  |  |  |  |  | Ki [1]: 66700 nM; Ki [5]: > 100000 nM; Ki (α4β2* nAChRs): 80000 nM
N,N′-Octane-1,8-diyl-bis-picolinium Diiodide [bPiOI] | > 100000 nM |  |  |  |  |  | 10 nM | Ki [5, 10]: > 100000 nM; IC50 [3, 11]: 10 nM
